Source: US20250368645A1, “BETA CARBOLINE ANALOGUES AS SELECTIVE AND BIASED KAPPA OPIOID RECEPTORS AGONISTS FOR TREATING VARIOUS ASSOCIATED PATHOPHYSIOLOGICAL CONDITIONS” (COUNCIL OF SCIENTIFIC AND INDUSTRIAL RESEARCH, priority 2022, published 2025)
Read-outs that look alike come from different tables or passages of the source.

Experiments:
human KOR [1] = target: T1, human KOR (Homo sapiens, UniProt P41145); assay: GloSensor assay, Gi-mediated cAMP inhibition in HEK-293T cells transfected with human KOR; assay type: cell-based;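 on agonist at KOR (pIC50): value taken from a statement in the text not a table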
Target sequence in this assay (P41145 whole entry): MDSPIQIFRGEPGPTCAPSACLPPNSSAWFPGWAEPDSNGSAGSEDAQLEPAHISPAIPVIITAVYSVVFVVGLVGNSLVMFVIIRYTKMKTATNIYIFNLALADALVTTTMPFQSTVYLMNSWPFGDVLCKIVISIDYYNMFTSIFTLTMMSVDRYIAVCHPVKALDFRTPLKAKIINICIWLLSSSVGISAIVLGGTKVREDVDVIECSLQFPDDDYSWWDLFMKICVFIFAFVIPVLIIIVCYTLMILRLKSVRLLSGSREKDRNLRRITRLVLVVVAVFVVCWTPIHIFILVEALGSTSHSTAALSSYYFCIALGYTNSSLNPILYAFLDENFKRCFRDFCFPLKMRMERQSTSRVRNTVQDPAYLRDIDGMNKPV

MOR = MOR (Homo sapiens, UniProt P35372); assay: GloSensor assay at MOR; assay type: cell-based; conditions: given as Log IC50 (negative values)
Sequence of MOR (P35372 whole entry): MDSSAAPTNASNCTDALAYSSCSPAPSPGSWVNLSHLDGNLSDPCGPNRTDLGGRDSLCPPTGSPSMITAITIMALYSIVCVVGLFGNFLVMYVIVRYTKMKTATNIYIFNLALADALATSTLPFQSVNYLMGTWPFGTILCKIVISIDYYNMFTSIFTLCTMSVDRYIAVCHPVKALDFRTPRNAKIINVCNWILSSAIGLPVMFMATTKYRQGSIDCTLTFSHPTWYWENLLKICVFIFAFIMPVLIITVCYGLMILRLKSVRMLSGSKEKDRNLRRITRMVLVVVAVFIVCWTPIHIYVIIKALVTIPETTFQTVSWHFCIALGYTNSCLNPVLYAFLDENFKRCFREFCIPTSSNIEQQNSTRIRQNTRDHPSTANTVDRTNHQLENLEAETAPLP

DOR = DOR (Homo sapiens, UniProt P41143); assay: GloSensor assay at DOR; assay type: cell-based; conditions: given as Log IC50 (negative values)
Sequence of DOR (P41143 whole entry): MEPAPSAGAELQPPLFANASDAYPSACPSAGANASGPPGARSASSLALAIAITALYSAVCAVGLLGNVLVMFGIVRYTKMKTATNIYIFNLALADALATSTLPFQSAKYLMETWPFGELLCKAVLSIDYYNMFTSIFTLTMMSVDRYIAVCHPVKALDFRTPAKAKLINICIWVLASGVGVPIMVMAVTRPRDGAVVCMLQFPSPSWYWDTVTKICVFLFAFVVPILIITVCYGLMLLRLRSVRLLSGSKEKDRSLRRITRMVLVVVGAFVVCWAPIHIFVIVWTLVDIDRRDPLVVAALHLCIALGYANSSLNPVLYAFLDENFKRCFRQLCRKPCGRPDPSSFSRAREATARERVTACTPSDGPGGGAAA

human KOR [2] = target: T1, human KOR; assay: β-arrestin2 Tango assay in HTLA cells transiently transfected with human KOR; assay type: cell-based; conditions: Table 2, KOR; read-out: B-arrestin Tango Assay (pEC50) (converted)
Target sequence in this assay (P41145 whole entry, added parts left off): as the sequence (P41145 whole entry) above

C57Bl/6 mice [3] = assay: Tail flick assay for analgesia; assay type: in vivo
SD rats = assay: Neuropathic pain induced by chronic constriction injury (CCI) of sciatic nerve; assay type: in vivo, rat
[4] = test system: paclitaxel (PTX)-treated mice; assay: Paclitaxel-induced peripheral neuropathy model; assay type: in vivo
C57Bl/6 mice [5] = assay: Hargreaves assay for thermal analgesia after intracerebroventricular administration; assay type: in vivo; conditions: 10 nmol
[6] = 8abd 10 mg/kg/day p.o., U50488 5 mg/kg/day i.p., 7 days, tested 16 hours after drug administration
[7] = 8abd 5 and 10 mg/kg p.o., duloxetine 10 mg/kg, 16 days

Fc1ccc(-n2c[n+]3ccc4c5ccccc5[nH]c4c3c2-c2ccc(Br)cc2)cc1.[Cl-] [8abd, 1-(4-Bromophenyl)-2-(4-fluorophenyl)-2,11-dihydrolmidazo[1′,5′:1,2]pyrido[3,4-b]indol-4-ium chloride]
G-Protein Bias factor (IC50 -Glosensor/- EC50 - Tango) (human KOR [1]; KOR, GloSensor versus Tango): 2.33
IC50 (human KOR [1]; Table 2, KOR, read-out: GloSensor Assay (pIC50) (converted)): 0.00105 µM
IC50 (human KOR [1]; given as Log IC50 (negative values), agonist activity, inhibition of FSK-stimulated cAMP, read-out: GloSensor Assay (Log IC50) KOR (converted)): 0.00501 µM
IC50 (human KOR [1]; read-out: agonist at KOR (pIC50) (converted)): < 0.0316 µM
IC50 (MOR): > 10 µM
IC50 (DOR): > 10 µM
EC50 (human KOR [2]): 0.224 µM
tail flick latency time (C57Bl/6 mice [3]; 10 mg/kg or 5 mg/kg p.o., in comparison to vehicle treated mice): significantly increased
duration of the analgesic effect (C57Bl/6 mice [3]; 8abd 5 and 10 mg/kg p.o., U50488 5 mg/kg i.p.): comparable to U50488
analgesic effect in presence of selective KOR antagonist Norbinaltrophamine (NBN) (C57Bl/6 mice [3]; NBN 5 mg/kg i.p. (legend: 10 mg/kg i.p.)): completely blocked
CCI-induced thermal hyperalgesia, acute administration (SD rats; 8abd 10 mg/kg p.o., U50488 5 mg/kg i.p., Hargreaves): robustly inhibited
CCI-induced mechanical pain, acute administration (SD rats; 8abd 10 mg/kg p.o., U50488 5 mg/kg i.p., von frey): robustly inhibited
CCI-induced mechanical pain, sub-chronic administration (SD rats; [6]): significantly blocked
CCI-induced thermal hyperalgesia, sub-chronic administration (SD rats; [6]): significantly blocked
mechanical pain (mechanical hyperalgesia, Von frey hair test), chronic administration [4, 7]: significantly improved
thermal hyperalgesia (Hargreaves test), chronic administration [4, 7]: significantly improved
improvement in both pain behaviors relative to duloxetine ([4]; chronic administration): better improvement in both pain behaviors as compared to duloxetine
analgesic activity (paw withdrawal latency) (C57Bl/6 mice [5]): exhibited analgesic activity
